Earlier results on one compound are cited in patent US12427127B2 (priority 2018, dated 2025).

Consider `O=NN(CCCl)C(=O)NCCCl` [Carmustine, 1,3-bis (2-chloroethyl)-1-nitrosourea], for which the “Solubility in alcohol and lipids” value was “highly soluble”; the Solubility in water entry is reported as “poorly soluble”.
